Laboratory results taken from patent US20100311714A1, “1H-IMIDAZO[4,5-c]QUINOLINONE COMPOUNDS” (priority 2009, published 2010).
Values after ≈ are worked out from the molar mass of the structure shown. Read-outs that look alike come from different tables or passages of the source.

Key:
[1] = Parallel Artificial Membrane Permeability Assay (PAMPA) at pH 6.8; format: physicochemical
Method in brief: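 Reported as log Pe, membrane permeability was determined by parallel artificial membrane assay at pH 6.8 per Wohnsland–Faller.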

PI3K delta = biological target: T1, PI3K delta (Homo sapiens, UniProt O00329); assay: PI3K delta kinase assay (Kinase-Glo luminescence); format: biochemical
T1 construct: for the full-length p110-d subunit are generated and fused by overlapping PCR; His tag (C); made in house; host or cells: baculovirus BV1060; Tn5 (Trichoplusia ni) or TiniPro insect cells
T1 sequence (O00329 with tags, fused parts or gaps limits assumed): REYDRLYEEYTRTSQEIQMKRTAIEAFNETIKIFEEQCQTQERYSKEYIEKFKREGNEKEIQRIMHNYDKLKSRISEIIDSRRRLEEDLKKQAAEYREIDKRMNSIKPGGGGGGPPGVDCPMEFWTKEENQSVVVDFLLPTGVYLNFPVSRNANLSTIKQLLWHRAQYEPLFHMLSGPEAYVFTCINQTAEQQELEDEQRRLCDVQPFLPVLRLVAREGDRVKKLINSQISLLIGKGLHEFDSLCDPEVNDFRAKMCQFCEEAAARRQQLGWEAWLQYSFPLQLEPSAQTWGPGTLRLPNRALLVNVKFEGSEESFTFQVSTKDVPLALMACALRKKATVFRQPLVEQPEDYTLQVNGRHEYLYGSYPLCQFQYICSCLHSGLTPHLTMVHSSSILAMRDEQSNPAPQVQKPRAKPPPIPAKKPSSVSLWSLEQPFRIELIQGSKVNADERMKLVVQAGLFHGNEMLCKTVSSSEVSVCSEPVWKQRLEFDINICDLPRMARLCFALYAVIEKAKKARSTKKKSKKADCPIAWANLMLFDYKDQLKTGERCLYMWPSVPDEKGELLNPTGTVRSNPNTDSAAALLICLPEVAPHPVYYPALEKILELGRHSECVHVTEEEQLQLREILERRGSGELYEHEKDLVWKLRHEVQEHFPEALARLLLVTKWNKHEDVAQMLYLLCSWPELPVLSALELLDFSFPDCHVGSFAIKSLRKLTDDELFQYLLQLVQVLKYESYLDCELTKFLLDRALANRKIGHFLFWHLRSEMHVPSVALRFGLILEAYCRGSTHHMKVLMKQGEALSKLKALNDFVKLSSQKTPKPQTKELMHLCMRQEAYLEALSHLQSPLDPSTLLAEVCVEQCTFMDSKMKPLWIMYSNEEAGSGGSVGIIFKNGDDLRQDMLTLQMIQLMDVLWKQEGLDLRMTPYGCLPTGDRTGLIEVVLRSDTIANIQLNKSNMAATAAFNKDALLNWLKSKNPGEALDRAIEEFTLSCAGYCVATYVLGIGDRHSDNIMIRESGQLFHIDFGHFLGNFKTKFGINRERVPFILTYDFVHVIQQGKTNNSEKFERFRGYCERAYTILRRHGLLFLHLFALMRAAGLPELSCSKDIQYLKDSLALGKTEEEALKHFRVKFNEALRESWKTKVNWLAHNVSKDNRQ
Method in brief: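 IC50s derive from 8-point inhibition curves fitted to a 4-parameter logistic model. Reaction: 10 nM purified p110δ/p85 iSH2 fusion, 1 μM ATP, 10 μg/mL PI substrate, pH 7.5 Tris buffer with MgCl2, NaCl, CHAPS and DTT, run 60 min at room temperature; remaining ATP read by Kinase-Glo luminescence.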

PI3K alfa = biological target: T2, PI3K alfa (Homo sapiens, UniProt P42336); assay: PI3K alpha kinase assay (Kinase-Glo luminescence); format: biochemical
T2 construct: His tag (C); made in house; host or cells: baculovirus BV1075; Tn5 (Trichoplusia ni) or TiniPro insect cells
T2 sequence (P42336 with tags, fused parts or gaps limits assumed): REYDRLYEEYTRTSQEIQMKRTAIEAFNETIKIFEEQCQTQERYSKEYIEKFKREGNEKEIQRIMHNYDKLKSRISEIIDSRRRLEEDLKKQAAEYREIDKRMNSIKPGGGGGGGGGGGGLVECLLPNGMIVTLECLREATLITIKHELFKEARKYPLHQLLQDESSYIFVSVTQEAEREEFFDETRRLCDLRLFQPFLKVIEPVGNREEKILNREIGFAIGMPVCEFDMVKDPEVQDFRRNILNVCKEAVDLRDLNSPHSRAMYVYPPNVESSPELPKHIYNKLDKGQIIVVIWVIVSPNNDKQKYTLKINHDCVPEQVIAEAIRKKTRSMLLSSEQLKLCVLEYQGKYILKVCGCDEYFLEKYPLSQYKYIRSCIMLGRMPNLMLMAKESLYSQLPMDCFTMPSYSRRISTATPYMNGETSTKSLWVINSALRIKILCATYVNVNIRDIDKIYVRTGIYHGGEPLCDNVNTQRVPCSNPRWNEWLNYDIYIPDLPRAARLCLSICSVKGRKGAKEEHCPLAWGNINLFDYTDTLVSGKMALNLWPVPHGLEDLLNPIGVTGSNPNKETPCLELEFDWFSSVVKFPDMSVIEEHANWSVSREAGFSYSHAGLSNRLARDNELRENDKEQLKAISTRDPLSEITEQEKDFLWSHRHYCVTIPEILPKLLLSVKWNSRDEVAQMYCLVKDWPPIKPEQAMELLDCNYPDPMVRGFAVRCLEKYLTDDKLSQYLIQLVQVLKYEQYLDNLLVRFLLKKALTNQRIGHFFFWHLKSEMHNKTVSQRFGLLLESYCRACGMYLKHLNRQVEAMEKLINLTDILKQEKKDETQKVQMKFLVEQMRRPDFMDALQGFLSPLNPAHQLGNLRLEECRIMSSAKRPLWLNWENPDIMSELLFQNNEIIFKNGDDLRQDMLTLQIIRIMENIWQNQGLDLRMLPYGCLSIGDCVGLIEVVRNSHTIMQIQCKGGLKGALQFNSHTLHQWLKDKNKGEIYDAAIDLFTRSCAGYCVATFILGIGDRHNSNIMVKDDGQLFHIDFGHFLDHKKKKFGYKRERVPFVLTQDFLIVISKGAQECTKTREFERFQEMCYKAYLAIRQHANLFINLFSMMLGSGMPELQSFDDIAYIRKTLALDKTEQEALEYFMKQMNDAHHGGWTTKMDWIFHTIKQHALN
Method in brief: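 IC50 values come from a four-parameter logistic fit of percent inhibition at eight concentrations, typically 10 to 0.003 μM. Recombinant PI3Kα at 10 nM turned over 1 μM ATP with 10 μg/mL PI for 60 min at room temperature, and residual ATP was measured by Kinase-Glo.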

[2] = High-throughput equilibrium solubility at pH 6.8; format: physicochemical; details: pH 6.8, aqueous buffer, thermodynamic from solid; read-out: HT-Eq Sol/pH 6.8
Method in brief: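 Following the procedure of Zhou et al. (2007), compound solubility was determined at pH 6.8.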

Row | Compound | HT-Perm logPe pH6.8 [1] | IC50 (PI3K delta; read-out: EPK_PI3Kdelta/IC50) [nM] | IC50 (PI3K alfa; read-out: EPK_PI3Kalfa/IC50) [nM] | solubility thermodynamic [2] [µg/mL] | HT-perm/logPe pH6.8 [1] | IC50 (PI3K delta; read-out: PI3Kdelta/IC50) [nM] | IC50 (PI3K alfa; read-out: PI3Kalfa/IC50) [nM]
1 | CCNc1cc(-c2ccc3ncc4c(c3c2)n(-c2ccc(OC)nc2Cl)c(=O)n4C)cnc1C [Example 18.1, 1-(2-Chloro-6-methoxy-pyridin-3-yl)-8-(5-ethylamino-6-methyl-pyridin-3-yl)-3-methyl-1,3-dihydro-imidazo[4,5-c]quinolin-2-one] | −3.6 | 22 | 40 | 10 (≈ 21.1 µM) | – | – | –
2 | CNc1cc(-c2ccc3ncc4c(c3c2)n(-c2ccc(F)nc2C)c(=O)n4C)cnc1CO [Example 7.11, 1-(6-Fluoro-2-methyl-pyridin-3-yl)-8-(6-hydroxymethyl-5-methylamino-pyridin-3-yl)-3-methyl-1,3-dihydro-imidazo[4,5-c]quinolin-2-one] | −5.4 | 26 | 17 | 207 (≈ 466 µM) | – | – | –
3 | CNC(=O)c1cc(-c2ccc3ncc4c(c3c2)n(-c2ccc(F)nc2C)c(=O)n4C)cnc1N [Example 7.14, 2-Amino-5-[1-(6-fluoro-2-methyl-pyridin-3-yl)-3-methyl-2-oxo-2,3-dihydro-1H-imidazo[4,5-c]quinolin-8-yl]-N-methyl-nicotinamide] | −5.9 | 5 | 11 | 3 (≈ 6.56 µM) | – | – | –
4 | CCOc1ccc(-c2ccc3ncc4c(c3c2)n(-c2ccc(C)nc2C)c(=O)n4C)cn1 [Example 14.2, 1-(2,6-Dimethyl-pyridin-3-yl)-8-(6-ethoxy-pyridin-3-yl)-3-methyl-1,3-dihydro-imidazo[4,5-c]quinolin-2-one] | −3.8 | 30 | 43 | 4 (≈ 9.4 µM) | – | – | –
5 | COc1ncccc1-n1c(=O)n(C)c2cnc3ccc(-c4ccc(F)nc4)cc3c21 [Example 1.8, 8-(6-Fluoro-pyridin-3-yl)-1-(2-methoxy-pyridin-3-yl)-3-methyl-1,3-dihydro-imidazo[4,5-c]quinolin-2-one] | – | – | – | 4 (≈ 9.97 µM) | −3.7 | 364 | 58
6 | CCOc1ccc(-c2ccc3ncc4c(c3c2)n(-c2ccc(OCCOC)nc2C)c(=O)n4C)cn1 [Example 13.1, 8-(6-Ethoxy-pyridin-3-yl)-1-[6-(2-methoxy-ethoxy)-2-methyl-pyridin-3-yl]-3-methyl-1,3-dihydro-imidazo[4,5-c]quinolin-2-one] | −4 | 742 | 158 | 3 (≈ 6.18 µM) | – | – | –
7 | CCNc1cc(-c2ccc3ncc4c(c3c2)n(-c2ccc(OC)nc2C)c(=O)n4C)cnc1C [Example 11.7, 8-(5-Ethylamino-6-methyl-pyridin-3-yl)-1-(6-methoxy-2-methyl-pyridin-3-yl)-3-methyl-1,3-dihydro-imidazo[4,5-c]quinolin-2-one] | −3.7 | 3 | < 3 | 3 (≈ 6.6 µM) | – | – | –
8 | Cc1ccc(-n2c(=O)n(C)c3cnc4ccc(-c5cnc(N(C)C)nc5)cc4c32)c(C)n1 [Example 14.3, 8-(2-Dimethylamino-pyrimidin-5-yl)-1-(2,6-dimethyl-pyridin-3-yl)-3-methyl-1,3-dihydro-imidazo[4,5-c]quinolin-2-one] | −3.8 | 49 | 140 | 7 (≈ 16.5 µM) | – | – | –
9 | COCC(=O)Nc1ccc(-n2c(=O)n(C)c3cnc4ccc(-c5cncc(N)c5)cc4c32)c(C)n1 [Example 20.1, N-{5-[8-(5-Amino-pyridin-3-yl)-3-methyl-2-oxo-2,3-dihydro-imidazo[4,5-c]quinolin-1-yl]-6-methyl-pyridin-2-yl}-2-methoxy-acetamide] | −6.1 | 34 | 50 | 28 (≈ 59.6 µM) | – | – | –
10 | CNc1ncc(-c2ccc3ncc4c(c3c2)n(-c2ccc(C)nc2C)c(=O)n4C)cn1 [Example 14.4, 1-(2,6-Dimethyl-pyridin-3-yl)-3-methyl-8-(2-methylamino-pyrimidin-5-yl)-1,3-dihydro-imidazo[4,5-c]quinolin-2-one] | −4.6 | 44 | 30 | 8 (≈ 19.4 µM) | – | – | –
11 | CNc1ncc(-c2ccc3ncc4c(c3c2)n(-c2ccc(F)nc2C)c(=O)n4C)cc1F [Example 7.12, 8-(5-Fluoro-6-methylamino-pyridin-3-yl)-1-(6-fluoro-2-methyl-pyridin-3-yl)-3-methyl-1,3-dihydro-imidazo[4,5-c]quinolin-2-one] | −3.7 | 12 | 44 | 3 (≈ 6.94 µM) | – | – | –
12 | COCCOc1ccc(-n2c(=O)n(C)c3cnc4ccc(-c5cnc(N)c(C(F)(F)F)c5)cc4c32)c(C)n1 [Example 13.2, 8-(6-Amino-5-trifluoromethyl-pyridin-3-yl)-1-[6-(2-methoxy-ethoxy)-2-methyl-pyridin-3-yl]-3-methyl-1,3-dihydro-imidazo[4,5-c]quinolin-2-one] | −3.7 | 14 | 36 | 27 (≈ 51.5 µM) | – | – | –
13 | CNc1ncc(-c2ccc3ncc4c(c3c2)n(-c2ccc(N(C)CCOC)nc2C)c(=O)n4C)cn1 [Example 15.2, 1-{6-[(2-Methoxy-ethyl)-methyl-amino]-2-methyl-pyridin-3-yl}-3-methyl-8-(2-methylamino-pyrimidin-5-yl)-1,3-dihydro-imidazo[4,5-c]quinolin-2-one] | −3.9 | 32 | 39 | 81 (≈ 167 µM) | – | – | –
14 | CNc1ncc(-c2ccc3ncc4c(c3c2)n(-c2ccc(OCCOC)nc2C)c(=O)n4C)cn1 [Example 13.5, 1-[6-(2-Methoxy-ethoxy)-2-methyl-pyridin-3-yl]-3-methyl-8-(2-methylamino-pyrimidin-5-yl)-1,3-dihydro-imidazo[4,5-c]quinolin-2-one] | −4.3 | 60 | 43 | 15 (≈ 31.8 µM) | – | – | –
15 | CNc1ncc(-c2ccc3ncc4c(c3c2)n(-c2cnc(F)cc2C)c(=O)n4C)cn1 [Example 16.3, 1-(6-Fluoro-4-methyl-pyridin-3-yl)-3-methyl-8-(2-methylamino-pyrimidin-5-yl)-1,3-dihydro-imidazo[4,5-c]quinolin-2-one] | −4.4 | 113 | 71 | 27 (≈ 65 µM) | – | – | –
16 | CNc1ncc(-c2ccc3ncc4c(c3c2)n(-c2ccc(F)nc2C)c(=O)n4C)cc1C(F)(F)F [Example 7.13, 1-(6-Fluoro-2-methyl-pyridin-3-yl)-3-methyl-8-(6-methylamino-5-trifluoromethyl-pyridin-3-yl)-1,3-dihydro-imidazo[4,5-c]quinolin-2-one] | −3.7 | 3 | 11 | 20 (≈ 41.5 µM) | – | – | –
17 | COc1ccc(-n2c(=O)n(C)c3cnc4ccc(-c5cnc(CO)c(OC)c5)cc4c32)c(C)n1 [Example 11.8, 8-(6-Hydroxymethyl-5-methoxy-pyridin-3-yl)-1-(6-methoxy-2-methyl-pyridin-3-yl)-3-methyl-1,3-dihydro-imidazo[4,5-c]quinolin-2-one] | −3.9 | < 3 | 16 | 26 (≈ 56.8 µM) | – | – | –
18 | CNc1cc(-c2ccc3ncc4c(c3c2)n(-c2ccc(N(C)C)nc2C)c(=O)n4C)cnc1C [Example 19.2, 1-(6-Dimethylamino-2-methyl-pyridin-3-yl)-3-methyl-8-(6-methyl-5-methylamino-pyridin-3-yl)-1,3-dihydro-imidazo[4,5-c]quinolin-2-one] | −4.1 | 28 | 14 | 34 (≈ 75 µM) | – | – | –
19 | Cc1cc(F)ncc1-n1c(=O)n(C)c2cnc3ccc(-c4cnc(N)c(C(F)(F)F)c4)cc3c21 [Example 16.1, 8-(6-Amino-5-trifluoromethyl-pyridin-3-yl)-1-(6-fluoro-4-methyl-pyridin-3-yl)-3-methyl-1,3-dihydro-imidazo[4,5-c]quinolin-2-one] | −3.7 | 27 | 14 | 3 (≈ 6.4 µM) | – | – | –
20 | COc1ncccc1-n1c(=O)n(C)c2cnc3ccc(-c4cnc(N(C)C)nc4)cc3c21 [Example 1.9, 8-(2-Dimethylamino-pyrimidin-5-yl)-1-(2-methoxy-pyridin-3-yl)-3-methyl-1,3-dihydro-imidazo[4,5-c]quinolin-2-one] | – | – | – | 3 (≈ 7.02 µM) | −3.3 | 85 | 71
21 | CCNc1cc(-c2ccc3ncc4c(c3c2)n(-c2cnc(F)cc2C)c(=O)n4C)cnc1C [Example 16.2, 8-(5-Ethylamino-6-methyl-pyridin-3-yl)-1-(6-fluoro-4-methyl-pyridin-3-yl)-3-methyl-1,3-dihydro-imidazo[4,5-c]quinolin-2-one] | −3.8 | 27 | 33 | 70 (≈ 158 µM) | – | – | –
